{"source": "patent US4189484A", "about": "“Antihypertensive quinazoline derivatives” (priority 1977, dated 1980)", "key": {"[1]": {"tested_on": "spontaneously hypertensive rats (SHR)", "assay": "Antihypertensive effect, oral administration to spontaneously hypertensive rats (mean blood pressure and heart rate)", "type": "in vivo, rat", "details": "for Change in blood pressure after 3 hrs. from administration: Table 1; for Changes in blood pressure (BP) after oral administration / Changes in heart rate (HR) after oral administration: Table 2, male SHR, n=5, p.o.; for Changes in average blood pressures after administration: Table 3", "experimental": "Antihypertensive effect was determined by oral administration of the test compound to spontaneously hypertensive rats (hereinafter referred to as SHR).\nThese SHR were anesthetized with ether and chronically embedded with a cannula for determination of blood pressure so that one end of the said cannula may be placed in abdominal aorta and the other end thereof may be projected out of dorsal neck. When rats regained their body weight before operation in more than 1 week from operation, the test compound was given. Determination was made by measuring a mean blood pressure and a heart rate under unanesthetized and unrestrained conditions with the cannula connected to an electronic recording system. The test compound was suspended in a 1% tragacanth gum solution to make up a concentration so as to be a volume of 5 ml./kg. and then orally given."}, "[2]": {"assay": "in vivo", "type": "in vivo", "details": "mouse, in vivo, po; mice", "experimental": "(§1) ICR strain male mice, weighing 30-35 g., were deprived of food for 6 hours (water ad libitum) and then used in the experiment. Each group consisted of 8 animals. The test compound was suspended in a 1% tragacanth gum solution so as to be a volume of 40 ml./kg. and orally given. After administration, numbers of deceased animals, changes in body weight and other general states were observed or determined over 1 week.\n(§2) Survived mice were autopsyed."}, "[3]": {"tested_on": "ICR strain male mice", "assay": "in vivo", "type": "in vivo", "details": "for No. of deceased animal: 8 animals per group, 1 week", "experimental": "as §1, §2"}, "[4]": {"tested_on": "Adrenergic α-receptor", "assay": "Adrenergic α-receptor blocking effect (inhibition of hypertensive action of i.v. adrenalin hydrochloride)", "type": "in vivo, Wistar strain male rats", "details": "relative to prazosin", "experimental": "Wistar strain male rats, weighing 250-300 g., were used in this experiment. The rat was anesthetized with pentobarbital sodium and fitted in the right femoral artery with a cannula for determination of blood pressure and in the left femoral vein with another cannula for intravenous injection, the former cannula being connected to an electronic recording system to measure a blood pressure.\nAdrenergic α-receptor blocking effect was determined upon whether a hypertensive action with intravenous injection of adrenalin hydrochloride at 0.3 or 1 μg./kg. may be reserved by pretreatment with the test compound."}}}
{"smiles": "COc1cc2nc(N3CCN(C(=O)C=Cc4ccccc4)CC3)nc(N)c2cc1OC", "note": "[Compound No. 1, 2-(4-Cinnamoylpiperazin-1-yl)-4-amino-6,7-dimethoxyquinazoline]", "values": [{"measurement": "time of maximum antihypertensive effect from oral administration", "setting": "[1]; SHR, p.o.", "value": "3 to 6", "unit": "h"}, {"measurement": "antihypertensive effect, dose dependence", "setting": "[1]; SHR, p.o., 0.3-3 mg./kg., in words", "value": "correlated with a dose"}, {"measurement": "Change in blood pressure after 3 hrs. from administration", "setting": "[1]; SHR, p.o., 1 mg./kg., 3 hrs.", "value": -18, "unit": "mmHg"}, {"measurement": "Change in blood pressure after 3 hrs. from administration", "setting": "[1]; SHR, p.o., 10 mg./kg., 3 hrs.", "value": -53, "unit": "mmHg"}, {"measurement": "Changes in blood pressure (BP) after oral administration", "setting": "[1]; 0.3 mg./kg., 1 hr.", "value": "-14±5.1", "unit": "mm.Hg."}, {"measurement": "Changes in heart rate (HR) after oral administration", "setting": "[1]; 0.3 mg./kg., 1 hr.", "value": "-5.3±3.9", "unit": "no/min."}, {"measurement": "Changes in blood pressure (BP) after oral administration", "setting": "[1]; 0.3 mg./kg., 3 hrs.", "value": "-16±3.3", "unit": "mm.Hg."}, {"measurement": "Changes in heart rate (HR) after oral administration", "setting": "[1]; 0.3 mg./kg., 3 hrs.", "value": "-3.8±7.4", "unit": "no/min."}, {"measurement": "Changes in blood pressure (BP) after oral administration", "setting": "[1]; 0.3 mg./kg., 6 hrs.", "value": "-19±1.9", "unit": "mm.Hg."}, {"measurement": "Changes in heart rate (HR) after oral administration", "setting": "[1]; 0.3 mg./kg., 6 hrs.", "value": "0.3±5.9", "unit": "no/min."}, {"measurement": "Changes in blood pressure (BP) after oral administration", "setting": "[1]; 0.3 mg./kg., 24 hrs.", "value": "4±4.3", "unit": "mm.Hg."}, {"measurement": "Changes in heart rate (HR) after oral administration", "setting": "[1]; 0.3 mg./kg., 24 hrs.", "value": "3.9±7.1", "unit": "no/min."}, {"measurement": "Changes in blood pressure (BP) after oral administration", "setting": "[1]; 1 mg./kg., 1 hr.", "value": "-20±1.6", "unit": "mm.Hg."}, {"measurement": "Changes in heart rate (HR) after oral administration", "setting": "[1]; 1 mg./kg., 1 hr.", "value": "-4.8±4.1", "unit": "no/min."}, {"measurement": "Changes in blood pressure (BP) after oral administration", "setting": "[1]; 1 mg./kg., 3 hrs.", "value": "-26±3.3", "unit": "mm.Hg."}, {"measurement": "Changes in heart rate (HR) after oral administration", "setting": "[1]; 1 mg./kg., 3 hrs.", "value": "-1.5±4.7", "unit": "no/min."}, {"measurement": "Changes in blood pressure (BP) after oral administration", "setting": "[1]; 1 mg./kg., 6 hrs.", "value": "-27±4.1", "unit": "mm.Hg."}, {"measurement": "Changes in heart rate (HR) after oral administration", "setting": "[1]; 1 mg./kg., 6 hrs.", "value": "-7.9±2.7", "unit": "no/min."}, {"measurement": "Changes in blood pressure (BP) after oral administration", "setting": "[1]; 1 mg./kg., 24 hrs.", "value": "-2±1.2", "unit": "mm.Hg."}, {"measurement": "Changes in heart rate (HR) after oral administration", "setting": "[1]; 1 mg./kg., 24 hrs.", "value": "-0.5±3.2", "unit": "no/min."}, {"measurement": "Changes in blood pressure (BP) after oral administration", "setting": "[1]; 3 mg./kg., 1 hr.", "value": "-40±3.5", "unit": "mm.Hg."}, {"measurement": "Changes in heart rate (HR) after oral administration", "setting": "[1]; 3 mg./kg., 1 hr.", "value": "6.9±5.4", "unit": "no/min."}, {"measurement": "Changes in blood pressure (BP) after oral administration", "setting": "[1]; 3 mg./kg., 3 hrs.", "value": "-35±4.4", "unit": "mm.Hg."}, {"measurement": "Changes in heart rate (HR) after oral administration", "setting": "[1]; 3 mg./kg., 3 hrs.", "value": "-1.7±5.5", "unit": "no/min."}, {"measurement": "Changes in blood pressure (BP) after oral administration", "setting": "[1]; 3 mg./kg., 6 hrs.", "value": "-35±3.5", "unit": "mm.Hg."}, {"measurement": "Changes in heart rate (HR) after oral administration", "setting": "[1]; 3 mg./kg., 6 hrs.", "value": "10.0±8.3", "unit": "no/min."}, {"measurement": "Changes in blood pressure (BP) after oral administration", "setting": "[1]; 3 mg./kg., 24 hrs.", "value": "-4±4.3", "unit": "mm.Hg."}, {"measurement": "Changes in heart rate (HR) after oral administration", "setting": "[1]; 3 mg./kg., 24 hrs.", "value": "19.5±7.2", "unit": "no/min."}, {"measurement": "LD50 at 168 h", "setting": "[2]", "value": "> 5000", "unit": "mg/kg"}, {"measurement": "Body weight gain after 7 days", "setting": "[3]; p.o., 1,250 mg./kg.", "value": "+3.9 g."}, {"measurement": "No. of deceased animal", "setting": "[3]; p.o., 1,250 mg./kg.", "value": 0}, {"measurement": "Body weight gain after 7 days", "setting": "[3]; p.o., 2,500 mg./kg.", "value": "+4.0 g."}, {"measurement": "No. of deceased animal", "setting": "[3]; p.o., 2,500 mg./kg.", "value": 0}, {"measurement": "Body weight gain after 7 days", "setting": "[3]; p.o., 5,000 mg./kg.", "value": "+4.7 g."}, {"measurement": "No. of deceased animal", "setting": "[3]; p.o., 5,000 mg./kg.", "value": 0}, {"measurement": "α-receptor blocking action as compared with the action of prazosin", "setting": "[4]", "value": "1/10"}]}
{"smiles": "COc1cc2nc(N3CCN(C(=O)C=Cc4ccco4)CC3)nc(N)c2cc1OC", "note": "[compound 28, 2-{4-[3-(Furan-2-yl)-acryloyl]-piperazin-1-yl}-4-amino-6,7-dimethoxyquinazoline]", "values": [{"measurement": "Changes in average blood pressures after administration", "setting": "[1]; SHR, p.o., 1 mg./kg., 1 hr.", "value": -51, "unit": "mmHg"}, {"measurement": "Changes in average blood pressures after administration", "setting": "[1]; SHR, p.o., 1 mg./kg., 3 hrs.", "value": -31, "unit": "mmHg"}, {"measurement": "Changes in average blood pressures after administration", "setting": "[1]; SHR, p.o., 1 mg./kg., 6 hrs.", "value": -38, "unit": "mmHg"}, {"measurement": "Changes in average blood pressures after administration", "setting": "[1]; SHR, p.o., 1 mg./kg., 24 hrs.", "value": -11, "unit": "mmHg"}, {"measurement": "Changes in average blood pressures after administration", "setting": "[1]; SHR, p.o., 3 mg./kg., 1 hr.", "value": -74, "unit": "mmHg"}, {"measurement": "Changes in average blood pressures after administration", "setting": "[1]; SHR, p.o., 3 mg./kg., 3 hrs.", "value": -38, "unit": "mmHg"}, {"measurement": "Changes in average blood pressures after administration", "setting": "[1]; SHR, p.o., 3 mg./kg., 6 hrs.", "value": -43, "unit": "mmHg"}, {"measurement": "Changes in average blood pressures after administration", "setting": "[1]; SHR, p.o., 3 mg./kg., 24 hrs.", "value": -15, "unit": "mmHg"}, {"measurement": "LD50 at 168 h", "setting": "[2]", "value": "> 5000", "unit": "mg/kg"}, {"measurement": "Body weight gain after 7 days", "setting": "[3]; p.o., 1,250 mg./kg.", "value": "+2.6 g."}, {"measurement": "No. of deceased animal", "setting": "[3]; p.o., 1,250 mg./kg.", "value": 0}, {"measurement": "Body weight gain after 7 days", "setting": "[3]; p.o., 2,500 mg./kg.", "value": "+3.0 g."}, {"measurement": "No. of deceased animal", "setting": "[3]; p.o., 2,500 mg./kg.", "value": 0}, {"measurement": "Body weight gain after 7 days", "setting": "[3]; p.o., 5,000 mg./kg.", "value": "+0.2 g."}, {"measurement": "No. of deceased animal", "setting": "[3]; p.o., 5,000 mg./kg.", "value": 0}]}
